Tests used:
[1] = target: T1, truncated His-MBP-Tev-KLHDC2 (residues 1-363) (Homo sapiens, UniProt Q9Y2U9); test: KLHDC2 FP competition binding assay; details: 15 nM KLHDC2 (residues 1-363), 10 nM fluorescein-labeled diglycine peptide probe, read-out: KLHDC2 binding Human FP: average external IC50
T1 construct: truncated His -MBP-Tev-KLHDC2 (residues 1-363) purified from E. coli; made in house; host or cells: E. coli
T1 sequence (Q9Y2U9 1-363): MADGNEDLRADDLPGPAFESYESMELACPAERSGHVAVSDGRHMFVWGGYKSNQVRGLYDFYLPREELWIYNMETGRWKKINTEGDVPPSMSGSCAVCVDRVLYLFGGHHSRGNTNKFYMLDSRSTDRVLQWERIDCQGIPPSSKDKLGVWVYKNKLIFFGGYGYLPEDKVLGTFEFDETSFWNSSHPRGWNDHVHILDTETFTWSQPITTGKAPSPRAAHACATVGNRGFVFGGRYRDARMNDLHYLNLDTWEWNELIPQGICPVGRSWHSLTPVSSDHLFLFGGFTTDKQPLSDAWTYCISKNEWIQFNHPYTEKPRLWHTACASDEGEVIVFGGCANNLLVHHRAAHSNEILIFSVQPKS
Method: FP competition binding assays were performed using 15 nM truncated His -MBP-Tev-KLHDC2 (residues 1-363) purified from E. coli, 10 nM fluorescein-labeled diglycine peptide probe, and test compounds in assay buffer consisting of 50 mM HEPES-Na pH 7.5, 100 mM NaCl, 2 mM DTT, 0.005% Tween-20 with a final volume of 20 uL. Compound stocks were dissolved at 10 mM in 100% DMSO and 11 point titration with 3 fold serial dilution was performed in black, flat bottom 384 well microplates. Plates were incubated at room temperature for 30 minutes. Plates were centrifuged at 1000 rpm for 1 min, data were collected using an Envision plate reader in fluorescence polarization mode with excitation filter FITC FP at 480 nm, emission filter FITC FP P-pol at 535 nm and FITC FP S-pol at 535 nm. FP signal was calculated using the equation (mP=1000*(S-G*P)/(S+G*P), G-factor=1.0) and % Inhibition was calculated using no-protein controls for 100% inhibition and DMSO only reactions for 0l % inhibition (yes).

[2] = target: T1, truncated His-MBP-Tev-KLHDC2 (residues 1-363); test: KLHDC2 HTRF binding assay; details: 1 nM KLHDC2 (residues 1-363), fluorescein-labeled diglycine peptide probe

SMILES | IC50 [1] [µM] | IC50 [2] [µM]
O=C(O)Cn1cc(NC(=O)c2cccc(Br)c2)ccc1=O [I-268] | > 5 | > 5
Cn1ccc2cccc(-c3ccc(=O)n(CC(=O)O)c3)c21 [I-363] | > 5 | > 5
Nc1ccc(-c2ccc(=O)n(CC(=O)O)c2)cc1 [I-332] | > 5 | > 5
O=C(O)Cn1cc(Nc2ncc(-c3cccnc3)c3ccccc23)ccc1=O [I-56] | > 5 | 0.5 to 5
O=C(O)Cn1cc(NC(=O)c2cc(-c3ccccc3)ccn2)ccc1=O [I-267] | > 5 | > 5
CN(C(=O)c1ccccc1)c1ccc(=O)n(CC(=O)O)c1 [I-286] | > 5 | > 5
CC(C)c1ccc(S(=O)(=O)NCCC(=O)Nc2ccc(=O)n(CC(=O)O)c2)cc1 [I-180] | > 5 | > 5
Cc1cc(C(=O)Nc2ccc(=O)n(CC(=O)O)c2)sc1-c1ccccc1 [I-297] | > 5 | 0.5 to 5
O=C(O)Cn1cc(-c2cccc(CN3CCOCC3)c2)ccc1=O [I-304] | > 5 | > 5
O=C(O)C1CCOc2ccc(Cl)cc21 (stereo not shown) [I-215] | > 5 | > 5
CC(Cc1ccccc1Cl)C(=O)Nc1ccc(=O)n(CC(=O)O)c1 (stereo not shown) [I-310] | > 5 | > 5
O=C(O)C1CC(=O)N(C2CCSc3ccccc32)C1 (stereo not shown) [I-213] | > 5 | > 5
O=C(O)C1CC(=O)N(Cc2ccc(Cl)cc2)C1 (stereo not shown) [I-221] | > 5 | > 5
O=C(O)CN1C(=O)Cc2ccccc21 [I-224] | > 5 | > 5
O=C(O)Cc1cc(NC(=O)[C@@H]2CCCN(c3cccnc3)C2)ccc1F [I-27] | > 5 | > 5
O=C(O)Cn1cc(NC(=O)c2cccc(C3CCC3)c2)ccc1=O [I-240] | > 5 | > 5
COc1ccc(C#N)cc1-c1ccc(=O)n(CC(=O)O)c1 [I-341] | > 5 | > 5
Cc1ccc(C(F)(F)F)cc1-c1ccc(=O)n(CC(=O)O)c1 [I-350] | > 5 | > 5
CC(C)c1cc(=O)n(CC(=O)O)cc1NC(=O)[C@H]1CCCN(c2cccnc2)C1 [I-46] | > 5 | 0.5 to 5
O=C(O)Cn1cc(CC(=O)N2CCc3ccccc32)ccc1=O [I-277] | > 5 | > 5

SMILES | IC50 [1] [µM] | IC50 [2] [µM]
Cc1cc(=O)n(CC(=O)O)cc1NC(=O)c1cccc(-c2cccnc2)c1 [I-96] | 0.5 to 5 | 0.05 to 0.5
Cc1ccc(C(=O)Nc2ccc(=O)n(CC(=O)O)c2)nc1-c1ccccc1 [I-173] | > 5 | 0.5 to 5
O=C(O)Cn1cc(-c2cccc(/C=C/c3ccccc3)c2)ccc1=O [I-296] | > 5 | > 5
O=C(O)Cn1cc(N2CC[C@@]3(CCCN(c4cccnc4)C3)C2=O)ccc1=O [I-14] | > 5 | > 5
CSCCC(NC(=O)c1ccccc1C)C(=O)Nc1ccc(=O)n(CC(=O)O)c1 (stereo not shown) [I-208] | > 5 | > 5
COc1ccc(/C=C/CC(=O)Nc2ccc(=O)n(CC(=O)O)c2)cc1 [I-210] | > 5 | > 5
COc1cc(-c2ccc(=O)n(CC(=O)O)c2)ccn1 [I-378] | > 5 | > 5
NCCCCCCn1ccc2c(C(=O)Nc3ccc(=O)n(CC(=O)O)c3)cccc21 [I-137] | > 5 | > 5
Cc1ccc(C)c(-c2ccc(=O)n(CC(=O)O)c2)c1 [I-419] | > 5 | > 5
O=C(O)Cn1cc(NC(=O)[C@H]2C[C@H](C(F)(F)F)CN(c3cccnc3)C2)ccc1=O [I-64] | 0.5 to 5 | 0.05 to 0.5
O=C(O)Cn1cc(NC(=O)c2cccc(-c3cccnc3)n2)ccc1=O [I-141] | > 5 | 0.5 to 5
O=C(O)Cn1cc(NC(=O)[C@H]2CCCN(c3cncc4ccccc34)C2)ccc1=O [I-41] | < 0.05 | < 0.05
O=C(O)Cn1cc(-c2ccc(C(F)(F)F)cc2)ccc1=O [I-372] | > 5 | > 5
O=C(O)Cn1cc(NC(=O)COc2cccc3ncccc23)ccc1=O [I-263] | > 5 | > 5
O=C(O)Cn1cc(NC(=O)COc2ccccc2Cl)ccc1=O [I-282] | > 5 | > 5
O=C(O)Cn1cc(N2CCOCC2)ccc1=O [I-355] | > 5 | > 5
O=C(O)Cn1cc(NC(=O)c2ccc3nc(Cl)ccc3c2)ccc1=O [I-176] | > 5 | > 5
CNC(=O)c1cccc(-c2cccc(C(=O)Nc3ccc(=O)n(CC(=O)O)c3)c2)c1 [I-195] | > 5 | > 5
O=C(O)Cn1cc(Nc2ncnc3c(-c4cccnc4)cccc23)ccc1=O [I-87] | > 5 | > 5
CCOC(=O)Cn1cc(NC(=O)c2ccc(CCCCCCN)c(-c3cccnc3)c2)ccc1=O [I-147] | > 5 | > 5

SMILES | IC50 [1] [µM] | IC50 [2] [µM]
CC(C)(C)OC(=O)NCCCCCCn1ccc2c(C(=O)Nc3ccc(=O)n(CC(=O)O)c3)cccc21 [I-160] | 0.5 to 5 | 0.05 to 0.5
Cc1cccc(-c2ccc(O)c(CC(=O)O)c2)c1 [I-337] | > 5 | > 5
O=C(O)CC1CN(C(=O)c2cccc(-c3cccnc3)c2)CCO1 (stereo not shown) [I-90] | > 5 | > 5
Cc1ccc(Cl)c(-c2ccc(=O)n(CC(=O)O)c2)c1 [I-342] | > 5 | > 5
O=C(Nc1ccc(=O)n([C@H](F)C(=O)O)c1)c1cccc(-c2cccnc2)c1 [I-52] | > 5 | > 5
CC(C)(C)OC(=O)NCCCCCCc1ccc(C(=O)Nc2ccc(=O)n(CC(=O)O)c2)cc1-c1cccnc1 [I-146] | 0.05 to 0.5 | 0.05 to 0.5
Cc1cc(C)cc(-c2ccc(=O)n(CC(=O)O)c2)c1 [I-408] | > 5 | > 5
O=C(O)Cn1cc(N2CCc3ccccc3C2=O)ccc1=O [I-95] | > 5 | 0.5 to 5
O=C(O)Cn1cc(NC(=O)c2ccc(-c3cccnc3)s2)ccc1=O [I-205] | > 5 | > 5
Cc1ccc(Cl)cc1-c1ccc(=O)n(CC(=O)O)c1 [I-401] | > 5 | > 5
Cc1ccc(C)c(-c2cn(CC(=O)O)c(=O)cc2C)c1 [I-330] | > 5 | > 5
COc1cc(-c2ccsc2)ccc1C(=O)Nc1ccc(=O)n(CC(=O)O)c1 [I-143] | 0.5 to 5 | 0.5 to 5
CCc1ccc(C(=O)Nc2ccc(=O)n(CC(=O)O)c2)cc1-c1ccccc1 [I-182] | > 5 | 0.5 to 5
CCCc1cccc(-c2ccc(=O)n(CC(=O)O)c2)c1 [I-358] | > 5 | > 5
CN(C)C(=O)c1ccc(-c2ccc(=O)n(CC(=O)O)c2)c(F)c1 [I-383] | > 5 | > 5
CCc1cc(=O)n(CC(=O)O)cc1NC(=O)c1cccc(-c2cccnc2)c1 [I-54] | 0.5 to 5 | 0.05 to 0.5
O=C(O)CN1CC(NC(=O)c2cccc(-c3cccnc3)c2)CCC1=O (stereo not shown) [I-86] | > 5 | > 5
O=C(O)Cn1cc(NC(=O)[C@H]2CCCN(c3cccnc3)C2)c(Cl)cc1=O [I-83] | 0.5 to 5 | 0.05 to 0.5
CC(C)c1cc(=O)n(CC(=O)O)cc1NC(=O)c1cccc(-c2cccnc2)c1 [I-59] | 0.5 to 5 | 0.05 to 0.5
